Tests used:
Format in all cases: cell-based, mouse
p38-α = assay: Isoform-specific immunoprecipitation, p38-α activity in C2C12 cells; conditions: C2C12, 10 μM DIPQUO
From the text: There are four separate p38 isoforms: α, β, γ, and δ. The respective roles of the α and β isoforms in bone differentiation have been dissected to the extent that p38-β is known to be involved specifically in skeletogenesis (Greenblatt et al., 2010), while p38-α has roles that are both wide-ranging and highly specific, for instance in dentition (Greenblatt et al., 2015). Accordingly, we used small interfering RNA-mediated knockdown to probe the specificity of DIPQUO to block the activity of one or the other isoform (FIG. 6E). […] To confirm the biological significance of this observation, the α and β isoforms were immunoprecipitated from C2C12 cells and analyzed for relative activity levels.

p38 MAPK = assay: Western blotting of p38 MAPK in BRITER cells; conditions: BMP-2/BMP-4 repression by tamoxifen
Procedure: Cells were maintained in DMEM with 10% FBS. For analysis of DIPQUO effects independent of BMP signaling, BMP-2 and BMP-4 knockdown was achieved by treating cells overnight with 1 μM 4-hydroxytamoxifen (4-OHT), followed by continued maintenance in 1 μM 4-OHT. Cells were serum-starved for at least 6 hours before treatment with recombinant BMP protein or DIPQUO as noted in figure legends.
Whole cell extracts were collected from C2C12 or BRITER cells in complete lysis buffer (20 mM Tris, 150 mM NaCl, 50 mM NaF, 1% NP40 substitute, HALT protease inhibitor cocktail (ThermoScientific). Proteins were resolved by electrophoresis on pre-cast 10% NuPage Bis-Tris gels (Invitrogen) and transferred to PVDF membranes (Bio-Rad). Membranes were blocked in 5% BSA-TBS-0.5% Tween-20 for 15 minutes, then incubated at 4° overnight with primary antibodies. Antibodies used were: rabbit anti-phospho-p38 MAPK (cat. no. 9211), anti-p38 MAPK XP (8690), anti-phospho-SMAD1/5 (9516), anti-SMAD1 XP (6944), anti-phospho-SMAD2/3 (8828), anti-SMAD2/3 XP (8685), anti-phospho-JNK (4668), anti-SAPK/JNK (9252), anti-phospho-Akt XP (4060), pan anti-Akt (4691), anti-phospho ERK p42/p44 (4377), anti-ERK p42/p44 (9102), anti-phospho-MKK3/6 (12280), anti-MKK3 (8535), anti-phospho-TAK1 (4531), anti-TAK1 (5206), anti-HA (3274), and anti-FLAG (14793); all from Cell Signaling); and mouse anti-p38α (cat. no. […]

C2C12 cells = assay: qRT-PCR of osteoblast differentiation transcripts in C2C12 cells; conditions: C2C12, 10 μM
Procedure: For quantitative RT-PCR analysis of gene expression in C2C12 cultures, cells were treated for 2 days with 10 μM DIPQUO and harvested into Trizol reagent (Invitrogen). One microgram of RNA was reverse transcribed using the VILO-RT kit (Invitrogen) to generate cDNA, which was diluted 1:25 in RNase-free H2O for qPCR with Sybr green using the Roche 480 II LightCycler and the 2^−ΔΔCT method (Livak and Schmittgen, 2001). For analysis of osteoclast gene expression, RAW 264.7 cells were treated with DMSO, 50 ng/ml RANKL, or 10 μM DIPQUO for 4 days, then harvested into Trizol reagent and processed as above. Mouse qPCR primers are as follows. Runx2: F([…]) (SEQ ID NO:1); R([…]) (SEQ ID NO:2); Dlx5: F([…]) (SEQ ID NO:3); R([…]) (SEQ ID NO:4); Osterix: F([…]) (SEQ ID NO:5); R([…]) (SEQ ID NO:6); ALP: F([…]) (SEQ ID NO:7); R([…]) (SEQ ID NO:8); Osteocalcin: F([…]) (SEQ ID NO:9); R([…]) (SEQ ID NO:10); Osteoactivin: F([…]) (SEQ ID NO:11); R([…]) (SEQ ID NO:12); CTSK: F([…]) (SEQ ID NO:13); R([…]) (SEQ ID NO:14); MMP9: F([…]) (SEQ ID NO:15); R([…]) (SEQ ID NO:16); Gapdh F([…]) (SEQ ID NO:17); R([…]) (SEQ ID NO:18). RNA-seq studies were carried out with the assistance of the Weill Cornell Genomics Core Facility, using the Illumina HiSeq4000 next-generation sequencer to generate reads from cDNA libraries generated from three biological replicates of day 2 DMSO- or DIPQUO-treated C2C12 cells. Gene sets were clustered by biological/disease function using Ingenuity Pathway Analysis (Qiagen Bioinformatics). Heatmaps with hierarchical clustering were generated in R using the CRAN package for a subset of genes involved in bone morphogenesis. Following normalization of the RNA Sequencing counts in DeSeq, z-scores were computed across samples within each gene for use in the heatmap. The accession number for the sequencing data reported in this paper is NCBI GEO: GSE125052.

Compound: Cc1cc(C)c2[nH]c(=O)c(-c3[nH]cnc3-c3ccccc3)cc2c1 [RU-0226606, 6,8-dimethyl-3-(4-phenyl-1H-imidazol-5-yl)quinolin-2(1H)-one]
- p38-α isoform activity after immunoprecipitation (p38-α): suppressed
- p38 MAPK activation in BRITER cells (p38 MAPK): maintained the ability to activate p38 MAPK even under conditions of BMP repression
- changes in expression of OCN and Osteoactivin (qRT-PCR) (C2C12 cells; 2 days, compared with BMP-treated positive controls): much higher with DIPQUO treatment than in BMP-treated positive controls
- expression of Runx2 and Osterix (qRT-PCR) (C2C12 cells; 2 days, vs DMSO): significant upregulation
- expression of ALP and OCN (qRT-PCR) (C2C12 cells; day 2, vs DMSO): substantially increased by day 2

From patent US11478466B2, “Small molecule promoting osteoblast differentiation” (Cornell University, priority 2019, dated 2022)
